Assay: Short-term stability in spiked pooled human plasma (bench-top, 4 °C, 56 °C)

Row | Structure (SMILES) | Short-time stability (1h, 56°C) Accuracy [%] (validation standard 2xLLOV) | Short-time stability (24h, 4°C, without daylight) Accuracy [%] (validation standard 2xLLOV) | Short-time stability (24h, RT, with daylight) Accuracy [%] (validation standard 2xLLOV) | Short-time stability (24h, RT, without daylight) Accuracy [%] (validation standard 2xLLOV) | Short-time stability (1h, 56°C) Accuracy [%] (validation standard LLOV) | Short-time stability (24h, 4°C, without daylight) Accuracy [%] (validation standard LLOV) | Short-time stability (24h, RT, with daylight) Accuracy [%] (validation standard LLOV) | Short-time stability (24h, RT, without daylight) Accuracy [%] (validation standard LLOV) | Short-time stability (1h, 56°C) Accuracy [%] (validation standard MOV) | Short-time stability (24h, 4°C, without daylight) Accuracy [%] (validation standard MOV) | Short-time stability (24h, RT, with daylight) Accuracy [%] (validation standard MOV) | Short-time stability (24h, RT, without daylight) Accuracy [%] (validation standard MOV) | Short-time stability (1h, 56°C) Accuracy [%] (validation standard ULOV) | Short-time stability (24h, 4°C, without daylight) Accuracy [%] (validation standard ULOV) | Short-time stability (24h, RT, with daylight) Accuracy [%] (validation standard ULOV) | Short-time stability (24h, RT, without daylight) Accuracy [%] (validation standard ULOV)
1 | CNCc1ccc(-c2[nH]c3cc(F)cc4c3c2CCNC4=O)cc1 [Rucaparib] | 56.7% | 94.0% | 94.3% | 95.8% | 60.9% | 106.8% | 100.0% | 99.7% | 52.2% | 102.0% | 100.5% | 102.1% | 46.1% | 96.9% | 98.9% | 99.1%
2 | N#CC[C@H](C1CCCC1)n1cc(-c2ncnc3[nH]ccc23)cn1 [Ruxolitinib] | 63.9% | 97.6% | 101.6% | 102.0% | 63.3% | 102.2% | 100.4% | 105.0% | 60.9% | 100.3% | 100.6% | 102.2% | 53.0% | 95.9% | 102.3% | 101.3%
3 | Cc1c(C(=O)Nc2ccc(N3C[C@@H](C)O[C@@H](C)C3)nc2)cccc1-c1ccc(OC(F)(F)F)cc1 [Sonidegib] | 47.0% | 99.1% | 95.7% | 91.1% | 38.1% | 96.4% | 96.2% | 86.1% | 44.9% | 98.4% | 92.2% | 94.7% | 40.1% | 96.7% | 92.9% | 91.4%
4 | CNC(=O)c1cc(Oc2ccc(NC(=O)Nc3ccc(Cl)c(C(F)(F)F)c3)cc2)ccn1 [Sorafenib] | 38.6% | 97.0% | 85.6% | 81.9% | 28.2% | 96.0% | 83.4% | 72.1% | 38.4% | 98.2% | 89.2% | 91.9% | 34.6% | 92.5% | 91.0% | 89.2%
5 | CCN(CC)CCNC(=O)c1c(C)[nH]c(/C=C2\C(=O)Nc3ccc(F)cc32)c1C [Sunitinib] | 54.5% | 105.9% | 79.8% | 83.9% | 65.8% | 111.2% | 93.0% | 98.2% | 44.2% | 101.2% | 83.0% | 86.7% | 40.6% | 106.4% | 93.1% | 93.8%
6 | O=C1CCC(N2C(=O)c3ccccc3C2=O)C(=O)N1 (stereo not shown) [Thalidomide] | – | 64.9% | – | – | – | 69.3% | – | – | – | 60.7% | – | – | – | 55.2% | 1.7% | 1.7%
7 | COc1cc2nccc(Oc3ccc(NC(=O)Nc4cc(C)on4)c(Cl)c3)c2cc1OC [Tivozanib] | 49.4% | 103.2% | 104.0% | 103.9% | 38.6% | 102.5% | 99.0% | 100.8% | 49.6% | 100.8% | 103.5% | 105.8% | 42.5% | 98.0% | 104.7% | 103.8%
8 | CC(=O)Nc1cccc(-n2c(=O)n(C3CC3)c(=O)c3c(Nc4ccc(I)cc4F)n(C)c(=O)c(C)c32)c1 [Trametinib] | 40.7% | 101.9% | 88.2% | 94.3% | 0.4% | 90.4% | 78.3% | 53.1% | 52.0% | 115.0% | 101.6% | 99.7% | 47.5% | 108.2% | 96.8% | 92.2%
